Legend:
[1] = cited from earlier work
[2] = tested on: HASMC cells; experiment: Extracellular acidification rate (ECAR), SeaHorse XF analyzer; type: cell-based, human; conditions: hyperglycemic HASMC cells in hypoxic conditions
Source text: Environmental influencers (e.g., MIMs or Epi-shifters) may also be identified by changes in cellular energetics. One example of the measurement of cellular energetics are the real-time measures of the consumption of molecular oxygen and/or the change in pH of the media of a cell culture. For example, the ability of a potential epi-shifter to modulate the metabolic state of a cell may be analyzed using, for example, the XF24 Analyzer (Seahorse, Inc.). This technology allows for real time detection of oxygen and pH changes in a monolayer of cells in order to evaluate the bioenergetics of a cell microenvironment. The XF24 Analyzer measures and compares the rates of oxygen consumption (OCR), which is a measure of aerobic metabolism, and extracellular acidification (ECAR), which is a measure of glycolysis, both key indicators of cellular energetics.
(SeaHorse Biosciences Inc, North Billerica, Mass.).
In this experiment, the OCR and extracellular acidification rate (ECAR) in normal cells lines were obtained in the presence and absence of CoQ10 to determine baseline values. It was observed that in its native nutrient environment, the basal OCR rates in normal cells lines are different, and are usually a function of the physiological roles of the cells in the body.
In Table 52 the measured baseline ECAR values (mpH/min) in HASMC were higher compared to that of HDFa. […]

[3] = tested on: Pyruvate Kinase M2 (PKM2); experiment: Western blot, Pyruvate Kinase M2 levels; type: cell-based, human
Description: The samples were processed and run on a 4-12% Bis-Tris Novex NuPAGE gel as described above. The gels were run, transferred and stained essentially as described above.
The lactate dehydrogenase blots were stripped by incubating for 30 minutes with methanol, followed by two 10 minute washes with TBS-T, then 30 minutes of incubation with Stripping buffer at 50 deg C., and followed by two washes with 100 ml or more of TBS-T for 30′ each. The 2 blots were scanned in laser scanner to check for complete stripping. The blots were activated with methanol for 5 seconds, washed with water for 5 minutes, and TBST for 15 minutes. The blots were blocked for 1 hour with 5% blocking reagent in TBS-T at room temperature and then washed 3 times with TBS-T (1×-15′; 2×5′ each) and probed with the rabbit polyclonal antibody for Pyruvate Kinase M2 in 5% BSA (NOVUS BIOLOGICALS catalog #H00005315-DO1P) at 1:500 dilution overnight at 4 deg C. with shaking. After the overnight incubation with primary antibody for Pyruvate Kinase M2, the membranes were washed 3 times with TBS-T (1×-15′; 2×5′ each) and probed with the secondary antibody (antirabbit; 1:10,000 dilution) for 1 h on the orbital tilting shaker at room temperature. After 1 h of incubation with secondary antibodies, the blots were washed 3 times with TBS-T (1×-15′; 2×5′ each) and then incubated with ECF reagent for 5 minutes and then each blot scanned with 5100 Fuji Laser scanner at 25 uM resolution, 16 bit, green laser, at 400V and at 500 V.
The HASMC samples were processed and the gels were run, transferred, stained and scanned essentially as described above.
The above blots were stripped by incubating for 30 minutes with methanol, followed by two 10 minute washes with TBS-T, then 30 minutes of incubation with Stripping buffer at 50 deg C., and followed by two washes with 100 ml or more of TBS-T for 30′ each. The blots were scanned in laser scanner to check for complete stripping. The blots were activated with methanol for 5 seconds, washed with water for 5 minutes, and TBST for 15 minutes. The blots were blocked for 1 hour with 5% blocking reagent in TBS-T at room temperature and then washed 3 times with TBS-T (1×-15′; 2×5′ each) and probed with the primary antibody for PKM2, SDHB or SDHC in 5% BSA in TBS-T by incubation overnight at 4 deg C. with gentle shaking. The primary antibody for SDHC (ABNOVA H00006391-MO2; antimouse) was at 1:500 dilution. The primary antibody for SDHB was from Abcam ab4714-200; antimouse; at 1:1000 dilution. The primary antibody for Pyruvate Kinase M2 (PKM2) was from Novus Biologicals H00005315-D0IP; antirabbit; at 1:500 dilution. After incubation with primary antibodies, the membranes were washed 3 times with TBS-T (1×-15′; 2×5′ each) and probed with the secondary antibody (SDHB & C antimouse; and PKM2 antirabbit; 1:10,000 dilution) for 1 h on the orbital tilting shaker at room temperature. After 1 h of incubation, the blots were washed 3 times with TBS-T (1×-15′; 2×5′ each) and incubated with ECF reagent for 5 minutes and then each blot scanned with 5100 Fuji Laser scanner at 25 uM resolution, 16 bit, green laser, at 400V and at 500 V.

[4] = tested on: SCC cells; experiment: Real-time PCR Heat Shock Protein Array; type: cell-based; conditions: 100 μM
Source text: The control cells were untreated cells.
Heat Shock Arrays were run for SCC cells and the data of regulated genes is summarized below in Table 13.

[5] = tested on: HepG2 (liver cancer) cells; experiment: PCR Apoptosis Array; type: cell-based

For `COC1=C(OC)C(=O)C(C/C=C(\C)CC/C=C(\C)CC/C=C(\C)CC/C=C(\C)CC/C=C(\C)CC/C=C(\C)CC/C=C(\C)CC/C=C(\C)CC/C=C(\C)CCC=C(C)C)=C(C)C1=O` [Q10, Coenzyme Q10], the solubility in water [1] is given as “insoluble in water”, the ECAR rates [2] is given as “downward trend” and the “Pyruvate Kinase Muscle form 2 Upper Band Normalized Intensity” value ([3]; HASMC, 5g48-50) is given as 811. The “Pyruvate Kinase Muscle form 2 Upper Band Normalized Intensity” value ([3]; HASMC, 5g48-100) was 611, the “Pyruvate Kinase Muscle form 2 Upper Band Normalized Intensity” value ([3]; HASMC, 22G24-50) was 477 and the “Pyruvate Kinase Muscle form 2 Upper Band Normalized Intensity” value ([3]; HASMC, 22G24-100) was 701. The “Pyruvate Kinase Muscle form 2 Upper Band Normalized Intensity” value ([3]; HASMC, 22G48-50) was 595, the “Pyruvate Kinase Muscle form 2 Upper Band Normalized Intensity” value ([3]; HASMC, 22G48-100) was 496 and the “Pyruvate Kinase Muscle form 2 Upper Band Normalized Volume” value ([3]; HepG2, 5g-50, 24 h) was 29269. The “Pyruvate Kinase Muscle form 2 Upper Band Normalized Intensity” value ([3]; HepG2, 5g-50, 48 h) was 303, the “Pyruvate Kinase Muscle form 2 Upper Band Normalized Volume” value ([3]; HepG2, 5g-100, 24 h) was 18307 and the “Pyruvate Kinase Muscle form 2 Upper Band Normalized Intensity” value ([3]; HepG2, 5g-100, 48 h) was 354. The “Pyruvate Kinase Muscle form 2 Upper Band Normalized Volume” value ([3]; HepG2, 22G-50, 24 h) was 22294, the “Pyruvate Kinase Muscle form 2 Upper Band Normalized Intensity” value ([3]; HepG2, 22G-50, 48 h) was 562 and the “Pyruvate Kinase Muscle form 2 Upper Band Normalized Volume” value ([3]; HepG2, 22G-100, 24 h) was 19560. For the same compound, the “Pyruvate Kinase Muscle form 2 Upper Band Normalized Intensity” value ([3]; HepG2, 22G-100, 48 h) was 601, the PKM2 expression ([3]; cancer cells tested) was “dose-dependent decrease” and the PKM2 expression ([3]; normal cells) was “no major changes”. For the same compound, the “DNAJA1 gene Regulation” value ([4]; at 6 hours) was “Up regulated at 6”, the “DNAJB5 gene Regulation” value ([4]; at 6 hours) was “Down regulated” and the “DNAJB13 gene Regulation” value ([4]; at 6 hours) was “Down regulated”. For the same compound, the “DNAJC4 gene Regulation” value ([4]; at 6 hours) was “Down regulated”, the “DNAJC5B gene Regulation” value ([4]; at 6 hours) was “Down regulated” and the “DNAJC12 gene Regulation” value ([4]; at 6 hours) was “Down regulated”. The “HSPA8 gene Regulation” value ([4]; at 6 hours) was “Up regulated at 6”, the “HSPH1 gene Regulation” value ([4]; at 6 hours) was “Up regulated at 6” and the “CCT6B gene Regulation” value ([4]; at 24 hours) was “Down regulated”. For the same compound, the “BAG1 mRNA downregulated over control” value ([5]; 100 uM Q10, 16 hours) was “approximately 6 fold”, the “CASP9 mRNA upregulated over control” value ([5]; 100 uM Q10, 16 hours) was “approximately 61 fold” and the “TNFRSF1A mRNA downregulated over control” value ([5]; 100 uM Q10, 16 hours) was ~4 fold. For the same compound, the “BAG1 mRNA upregulated over control” value ([5]; 100 uM Q10, 48 hours) was ~1 fold, the “CASP9 mRNA upregulated over control” value ([5]; 100 uM Q10, 48 hours) was “approximately 55 fold” and the “TNFRSF1A mRNA upregulated over control” value ([5]; 100 uM Q10, 48 hours) was ~1 fold.

From patent US20110020312A1, “METHODS FOR TREATMENT OF METABOLIC DISORDERS USING EPIMETABOLIC SHIFTERS, MULTIDIMENSIONAL INTRACELLULAR MOLECULES, OR ENVIRONMENTAL INFLUENCERS” (priority 2009, published 2011)
